# Experimental data as given in patent US4269843A, “N-Sec-alkyl analogs of norcodeine and normorphine and analgesic compositions and methods employing the normorphine derivatives” (priority 1980, dated 1981).
# Tests used:
# [1] = literature; cited from earlier work
# [2] = cited from earlier work; for analgesic / agonist activity (in words): literature
# mice [3] = test: Mouse Jump Physical Dependence Assay; format: in vivo; details: for Total Number Mice Affected (Jumped): i.p., 30 min; for number of mice jumping / withdrawal symptoms (in words): Naloxone 100 mg/kg on day 4, 30 minutes
# From the text: (§1) Using mice, the compounds of this invention were subjected to the Tail Flick Analgesic Assay, the Writhing Analgesic Assay, the Straub Tail Antagonist Assay and the Mouse Jump Physical Dependence Assay, said assays being described in the literature as follows:
# Saelens, J. K., Granat, F. R. and Sawyer, W. K. Arch. int. Pharmacodyn 190, 213-218 (1971).
# Using mice, tests were made to determine the physical dependence capacity of compounds 7(S) 7(R) and 9 as measured by the Mouse Jump Test, this being a simple screening method to estimate the physical dependence capacity of analgesics. In this mouse jumping test, the mice are injected (i.p.) 5× on day 1 with gradually increasing dosages ranging from 8 to 100 mg/kg of body weight. On days 2 and 3 the mice (in all except one test) were given 100 mg/kg 4×. In the one test, dosage was raised to 200-300 mg/kg on day 2 and to 300 mg/kg on day 3. On day 4 all the mice received one shot (100 mg/kg) of the antogonist Naloxone. Following this all mice were caged for 30 minutes and a record was made of the number of mice jumping during this interval.
# mice [4] = test: Straub Tail Antagonist Assay (morphine-injected mice); format: in vivo, mouse; details: for ED50: Mus musculus, dose which abolishes the response in 50% of the test mice, read-out: Inhibition of Straub tail response (ED50); for antagonist properties (in words): summary statement
# From the text: as §1
# Straub Tail Antagonist Assay
# Blumberg, H. and Dayton, H. B. In Narcotic antagonists Advances in Biochemical Psychopharmacology, Vol. 8, Ed., Brande, M. C., Harris L. S.
# mice [5] = test: animal or person; format: in vivo, mouse; details: for analgesic activity (in words): summary statement, mice tail flick and writhing assays; for ED50: Mus musculus, mice, dose [micromoles per kg of body weight] which gives a group mean response time of 5 seconds, read-out: Tail Flick (ED50)
# From the text: as §1
# Tail Flick Analgesic Assay
# D'Amour, F. E and Smith, D. L., J. Pharmacol. Exp. Therap. 72, 74-79 (1941)
# Howes, J. F., Harris, L. S., Dewey, W. L. and Voyda, C. A., J. Pharmacol. Exp. Therap. 169, 23-28 (1969)
# Dewey, W. L., Harris, L. S., Howes, J. F. and Nuite, J. A., J. Pharmacol. Exp. Therap. 175, 435-442 (1970)
# The Tail Flick Analgesic Assay represents a test procedure in which heat from an intense light source is focused on the mouse's tail. When pain is detected by the mouse the tail gives a characteristic flicking response. In untreated controls the intervals from exposure to flick is about 2 seconds, while when using an effective analgesic the interval from exposure to flick is usually about 6 to 10 seconds. The ED50 values given in Table 1 below represent the dose [micromoles (μM) per kg of body weight] which gives a group mean response time of 5 seconds.
# mice [6] = test: animal or person; format: in vivo; details: Mus musculus, ip, phenylquinone i.p., dose which eliminates any writhing in 50% of the treated mice
# From the text: as §1
# Blumberg, H., Wolf, P. S. and Dayton, H. B., Proc. soc. Exper. Biol. Med., 118, 763 (1965).
# The ED50 values given in Table 1 below represent the dose (μM/kg) which eliminates any such writhing in 50% of the treated mice.
# [7] = 8-100 mg/kg day 1, 100 mg/kg days 2 and 3, 100 mg/kg Naloxone day 4, mice tested: 7(S) 20, 7(R) 12, 9 10, Morphine 10, Nalline 12
smiles,measurement,setting,value
"CCCCN1CC[C@]23c4c5ccc(O)c4O[C@H]2[C@@H](O)C=C[C@H]3[C@H]1C5 [N-butyl-, N-butylnormorphine]",antagonist activity (in words),[1],devoid of antagonist properties
same,analgesic / agonist activity (in words),[2],potent analgesic activity
"C=CCN1CC[C@]23c4c5ccc(O)c4O[C@H]2[C@@H](O)C=C[C@H]3[C@H]1C5 [Nalorphine, N-allylnormorphine, reference compound]",Total Number Mice Affected (Jumped),mice [3]; [7],0-3
same,number of mice jumping / withdrawal symptoms (in words),mice [3],very small
same,ED50,mice [4]; mice injected with morphine,1 µmol/kg
CC(C)N1CC[C@]23c4c5ccc(O)c4O[C@H]2[C@@H](O)C=C[C@H]3[C@H]1C5 [N-isopropyl-normorphine],antagonist activity (in words),[1],"little, if any, antagonist qualities"
same,analgesic / agonist activity (in words),[2],not a good agonist
"C=CC(C)N1CC[C@]23c4c5ccc(O)c4O[C@H]2[C@@H](O)C=C[C@H]3[C@H]1C5 (stereo partly drawn) [Compound 8, N-α-methylallylnormorphine]",analgesic activity (in words),mice [5],analgesic activities similar to morphine
same,antagonist properties (in words),mice [4],antagonist properties indicative of low addiction potential
"CC[C@H](C)N1CC[C@]23c4c5ccc(O)c4O[C@H]2[C@@H](O)C=C[C@H]3[C@H]1C5 [7(S), N-2-butylnormorphine]",ED50,mice [5],13.4 µmol/kg
same,Total Number Mice Affected (Jumped),mice [3]; [7],2
same,Total Number Mice Affected (Jumped),"mice [3]; 8-100 mg/kg day 1, 200-300 mg/kg day 2, 300 mg/kg day 3, 100 mg/kg Naloxone day 4, 10 mice tested",1
same,number of mice jumping / withdrawal symptoms (in words),mice [3],very small
same,ED50,mice [6],11 µmol/kg
same,ED50,mice [4]; mice injected with morphine,7.4 µmol/kg
COc1ccc2c3c1O[C@H]1[C@@H](O)C=C[C@H]4[C@@H](C2)N(C(C)C)CC[C@@]341 [N-isopropyl-norcodeine],analgesic / agonist activity (in words),[2],inactive
CC(C)CN1CC[C@]23c4c5ccc(O)c4O[C@H]2[C@@H](O)C=C[C@H]3[C@H]1C5 [N-isobutylnormorphine],antagonist activity (in words),[1],morphine antagonists only
"CC(C1CC1)N1CC[C@]23c4c5ccc(O)c4O[C@H]2[C@@H](O)C=C[C@H]3[C@H]1C5 (stereo partly drawn) [Compound 9, N-α-methylcyclopropylmethylnormorphine]",ED50,mice [5],12.4 µmol/kg
same,analgesic activity (in words),mice [5],analgesic activities similar to morphine
same,Total Number Mice Affected (Jumped),mice [3]; [7],1
same,number of mice jumping / withdrawal symptoms (in words),mice [3],very small
same,ED50,mice [6],0.69 µmol/kg
same,ED50,mice [4]; mice injected with morphine,4.5 µmol/kg
same,antagonist properties (in words),mice [4],antagonist properties indicative of low addiction potential
CC(C)=CCN1CCC2(C)c3cc(O)ccc3CC1C2C (stereo not shown) [pentazocine],antagonist activity (in words),[1],dual agonist-antagonist
same,analgesic potency relative to morphine,[2]; fraction of the potency of morphine,about one-fourth
"CCC(CC)N1CC[C@]23c4c5ccc(O)c4O[C@H]2[C@@H](O)C=C[C@H]3[C@H]1C5 [Compound 10, N-3-pentylnormorphine]",ED50,mice [5],19.9 µmol/kg
same,analgesic activity (in words),mice [5],analgesic activities similar to morphine
same,ED50,mice [6],2.3 µmol/kg
same,ED50,mice [4]; mice injected with morphine,17.2 µmol/kg
same,antagonist properties (in words),mice [4],antagonist properties indicative of low addiction potential
CN1CC[C@]23c4c5ccc(O)c4O[C@H]2[C@@H](O)C=C[C@H]3[C@H]1C5 [Morphine],Total Number Mice Affected (Jumped),mice [3]; [7],10
same,number of mice jumping / withdrawal symptoms (in words),mice [3],all of the mice showed withdrawal symptoms
same,Inhibition of Straub tail response (result in words),mice [4]; mice injected with morphine,No inhibition
CCCCCCN1CC[C@]23c4c5ccc(O)c4O[C@H]2[C@@H](O)C=C[C@H]3[C@H]1C5 [N-hexylnormorphine],antagonist activity (in words),[1],devoid of antagonist properties
same,analgesic / agonist activity (in words),[2],potent analgesic activity
CCCN1CC[C@]23c4c5ccc(O)c4O[C@H]2[C@@H](O)C=C[C@H]3[C@H]1C5 [N-propyl normorphine],antagonist activity (in words),[1],morphine antagonists only
"CCC(C)N1CC[C@]23c4c5ccc(O)c4O[C@H]2[C@@H](O)C=C[C@H]3[C@H]1C5 (stereo partly shown) [Compound 7, N-2-butylnormorphine]",analgesic activity (in words),mice [5],analgesic activities similar to morphine
same,antagonist properties (in words),mice [4],antagonist properties indicative of low addiction potential
"CC[C@@H](C)N1CC[C@]23c4c5ccc(O)c4O[C@H]2[C@@H](O)C=C[C@H]3[C@H]1C5 [7(R), N-2-butylnormorphine]",ED50,mice [5],19 µmol/kg
same,Total Number Mice Affected (Jumped),mice [3]; [7],1
same,number of mice jumping / withdrawal symptoms (in words),mice [3],very small
same,ED50,mice [6],6.4 µmol/kg
same,ED50,mice [4]; mice injected with morphine,16.2 µmol/kg
"CCCCCN1CC[C@]23c4c5ccc(O)c4O[C@H]2[C@@H](O)C=C[C@H]3[C@H]1C5 [N-amyl-, N-amylnormorphine]",antagonist activity (in words),[1],devoid of antagonist properties
same,analgesic / agonist activity (in words),[2],potent analgesic activity
"C=C[C@@H](C)N1CC[C@]23c4c5ccc(O)c4O[C@H]2[C@@H](O)C=C[C@H]3[C@H]1C5 [8(R), N-α-methylallylnormorphine]",ED50,mice [5],44.5 µmol/kg
same,ED50,mice [6],13 µmol/kg
same,ED50,mice [4]; mice injected with morphine,11 µmol/kg
